# Where no end group is shown, it is not given here. [ ]: non-standard residue; d: D form. Cit = NC(=O)NCCC[C@H](N)C(=O)O
# B1: IL-1: murine IL-1 used to stimulate MEFs (protein, UniProt P10749 118-269, looked up)
# Interleukin-1 beta: VPIRQLHYRLRDEQQKSLVLSDPYELKALHLNGQNINQQVIFSMSFVQGEPSNDKIPVALGLKGKNLYLSCVMKDGTPTLQLESVDPKQYPKKKMEKRFVFNKIEVKSKVEFESAEFPNWYISTSQAEHKPVFLGNNSGQDIIDFTMESVSS
# How the values were obtained:
# RA sera = assay: IgG response to cyclic citrullinated FBG peptides in RA and control sera; format: binding, human; conditions: 20 RA and 20 control sera
# Excerpt: (A) Peptides with sequences corresponding to the amino acid sequence of FBG were designed, with the addition of cysteine residues at the amino and carboxy termini and the exchange of arginine for citrulline residues at positions identified by LC-MS/MS. (B) IgG response to citrullinated FBG peptides and arginine containing control peptides in patients with rheumatoid arthritis (RA; n=20) and healthy controls (n=20). The 95th percentile of the control sera was used to determine positivity (dashed line). Mann-Whitney U test was used to calculate p values for differences between groups (n.s.=no significant difference, *=p<0.05 and **=p<0.01, ***=p<0.001, […]).
# With reference to FIG. 31, the antibody response in 20 RA and 20 control sera to 6 cyclic FBG peptides, encompassing citrulline residues was evaluated.
# [1] = tested on: RA synovial membrane cultures; assay: Spontaneous cytokine synthesis in RA synovial membrane cultures incubated with FBG peptides; format: cell-based, human; conditions: for inhibition of cytokine synthesis at the highest concentrations / TNF and IL8 synthesis: RA synovial membrane cultures; for inhibition of cytokine synthesis at the highest concentrations: dose dependent, 25, 100 or 250 μM peptide, 24 h; for TNF and IL8 synthesis: spontaneous cytokine synthesis
# Protocol: RA membrane cells (representing a mixed population of all synovial cell types) were isolated from synovial membranes obtained from patients undergoing joint replacement surgery (Brennan (1989)). Synovial membrane tissue was digested in RPMI 1640 (GIBCO) containing 5% fetal calf serum (FCS) (GIBCO), 5 mg/ml collagenase type IV (Sigma) and 0 15 mg/ml DNAse type I (Sigma) and incubated at 37° C. for 2 h.
# Immediately after isolation, RA membrane cells were cultured at 1×10^5 cells/well in RPMI 1640 containing 10% (v/v) FBS and 100 U/ml penicillin/streptomycin in 96-well tissue culture plates. Cells were incubated for 24 h at 37° C. with no addition, buffer control (PBS, 1% BSA, 0.01% NaN3), or with 25 μm, 100 μM or 250 μM of each FBG spanning peptide.
# (§1) Supernatants were examined for the presence of the cytokines TNF-α, IL-6, and IL-8 by enzyme-linked immunosorbent assay (ELISA) according to the manufacturer's instructions (R&D systems). Absorbance was read on a spectrophotometric ELISA plate reader (Labsystems Multiscan Biochromic, Vantaa, Finland) and analyzed using the Ascent software program (Thermo Labsystems, Altrincham, UK).
# [2] = tested on: primary human macrophages; assay: Stimulation of primary human macrophages with each FBG peptide; format: cell-based; conditions: 1 or 20 μM FBG peptide, 24 h
# Protocol: (§2) After incubation the tissue was pipetted through a nylon mesh into a sterile beaker. The cells were then washed three times in complete medium (RPMI 1640 supplemented with 10% FCS). RA synovial fibroblasts were isolated from the mixed population of RA membrane cells by selection in DMEM (Bio-Whittaker) supplemented with 10% FBS, […], 100 U/ml penicillin, and streptomycin. Human monocytes were isolated from peripheral blood (London Blood Bank) and macrophages were derived from monocytes after differentiation for 4 days with 100 ng/ml of M-CSF.
# (§3) Macrophages were cultured at 1×10^5 cells/well in RPMI 1640 containing 5% (v/v) FBS and 100 U/ml penicillin/streptomycin in 96-well tissue culture plates for 24 h before stimulation. Cells were incubated for 24 h at 37° C. with no addition, 1.0 μM FBG, 1 ng/ml LPS or 1 or 20 μM FBG peptide. Where stated, cells were pre-incubated with 20 μM FBG peptides for 15 min.
# as §1
# human macrophages = assay: FBG or LPS induced cytokine synthesis in human macrophages pre-incubated with FBG peptides; format: cell-based; conditions: pre-incubation with 20 μM peptide, 24 h; for FBG mediated cytokine synthesis: then 1 μM whole FBG
# Protocol: as §2, §3, §1
# MyD88 = assay: Cytokine synthesis in embryonic fibroblasts from MyD88 deficient mice; format: cell-based; conditions: for cytokine synthesis: MEFs from MyD88 deficient mice, 24 h; for responsiveness after re-transfection of wild type MyD88: MyD88 deficient MEFs, data not shown
# Protocol: (§4) MEFs express high levels of mRNA of all 9 murine TLRs and are specifically and highly responsive to TLR ligand activation. […] MEFs were isolated from d13 embryos harvested from age-matched, pregnant female wild type, TLR2, TLR4 and null mice (as described in Todaro (1963)). Fibroblasts were cultured at 2×10^4 cells/well in DMEM containing 10% (v/v) FBS and 100 U/ml penicillin/streptomycin in 96-well tissue culture plates for 24 hours before stimulation.
# (§5) Cells were incubated for 24 hours at 37° C. with the indicated doses of tenascin-C and recombinant tenascin-C fragments (1.0 μM-1.0 nM). Cells were also stimulated where indicated with LPS (1 ng/ml for human macrophages, 10 ng/ml for human fibroblasts, RA membrane cells and HEKs, 100 ng/ml for MEFS and BMDMs and 10 ng/ml for HEKS), PAM3 (10 ng/ml for human macrophages, human fibroblasts, and HEKs, 100 ng/ml for MEFs and BMDMs), murine IL-1 (5 ng/ml for MEFS) and murine TNF-α (100 ng/ml for MEFS). Unless specifically stated otherwise rough LPS was used for in vitro studies.
# as §1, with “were subsequently” for “were”, “instructions.” for “instructions (R&D systems).”
# TLR4 = assay: Cytokine synthesis in embryonic fibroblasts or macrophages from TLR4 deficient mice; format: cell-based
# Protocol: as §4
# (§6) BMDMs were derived by aspirating the femurs of age matched female wild type, TLR2 and TLR4 null mice as described in Butler (1999)) and culturing the cells for 7 days in DMEM, 20% (v/v) FBS, 10 ml/L (v/v) antibiotic-antimycotic solution PSA, 50 μM β-Mercaptoethanol and 10 ng/ml M-CSF. Macrophages were then cultured at 1×10^5 cells/well in DMEM, 20% (v/v) FBS, 10 ml/L (v/v) antibiotic-antimycotic solution PSA, 50 μM β-Mercaptoethanol in 96-well tissue culture plates for 24 hours before stimulation.
# as §5
# as §1, with “were subsequently” for “were”, “instructions.” for “instructions (R&D systems).”
# TLR2 = assay: Cytokine synthesis in embryonic fibroblasts or macrophages from TLR2 deficient mice; format: cell-based
# Protocol: as §4, §6, §5
# as §1, with “were subsequently” for “were”, “instructions.” for “instructions (R&D systems).”
# [3] = tested on: primary human macrophages; assay: TNF synthesis in primary human macrophages stimulated with native or citrullinated FBG; format: cell-based; conditions: 0.1-1.0 μM, 24 h
# Protocol: Equal volumes of protein and 2× citrullination buffer (200 mM Tris HCl, pH 7.4, 20 mM CaCl2, 10 mM DTT) were mixed. 8.75 U rabbit skeletal PAD (product number P1584 from Sigma) per mg substrate protein was added and incubated for 3 hours at 37° C. or 2 hours at 50° C. Citrullination was confirmed by size shift visualized by coomassie blue staining of SDS PAGE or by AMC detection.
# Primary human macrophages were isolated as described above and cultured at 1×10^5 cells/well in RPMI 1640 containing 5% (v/v) FBS and 100 U/ml penicillin/streptomycin in 96-well tissue culture plates for 24 h before stimulation. Cells were incubated for 24 h at 37° C. with no addition (UN), different concentrations (uM) of native FBG (nFBG) or cit FBG (cFBG) or citrullination buffer alone (CIT) or cit buffer plus PAD enzyme (CIT+PAD).
# as §1, with “TNF-α” for “TNF-α, IL-6, and IL-8”
# [4] = tested on: human dermal fibroblasts (HDF); assay: Cell adhesion to coated FBG, human dermal fibroblasts; format: cell-based; conditions: coated wells, 45 minutes, crystal violet
# Protocol: (§7) (A) The sequence identified to bind integrin ≢vβ3 is shown in white (Yokoyama et al., 2000). Within this sequence two Arginines (shown in black) were identified to be citrullinated. (B) Wells of a 96 well plate were coated with different concentrations of FBG, citrullinated FBG (cFBG), FBG incubated in buffer without Calcium (FBG —Ca^2+), or FBG incubated without PAD (FBG -PAD). As a positive control wells were coated with Fibronectin (FN) (1 ug/ml), and coating with BSA (10 mg/ml) served as negative control. Plates were incubated with human dermal fibroblasts (HDF) or synovial fibroblasts from RA patients (RAF) for 45 minutes and adhesion was measured by determining absorbance of attached cells after staining with crystal violet (0.1%). Data are shown as the mean of at least four independent experiments+s.e.m., *=p<0.05, **=p<0.01.
# [5] = tested on: synovial fibroblasts from RA patients (RAF); assay: Cell adhesion to coated FBG, RA synovial fibroblasts; format: cell-based, human; conditions: coated wells, 45 minutes, crystal violet
# Protocol: as §7
molecule,measurement,setting,value
"CEMKL-Cit-PSNF-Cit-NLEGRRKRC (CEMKL[Cit]PSNF[Cit]NLEGRRKRC; not fully specified (bridges); printed as CEMKL-Cit-PSNF-Cit-NLEGRRKRC; also: cyclic, bridge not given here) [CIT209/214]",antibody response in RA sera and control sera,RA sera,detected in RA sera but not control sera
"CEMKLRPSNFRNLEG-Cit-Cit-KRC (CEMKLRPSNFRNLEG[Cit][Cit]KRC; not fully specified (bridges); printed as CEMKLRPSNFRNLEG-Cit-Cit-KRC; also: cyclic, bridge not given here) [CIT219/220]",antibody response in RA sera and control sera,RA sera,detected in RA sera but not control sera
"CVFLRRKNG-Cit-ENFYQNWC (CVFLRRKNG[Cit]ENFYQNWC; not fully specified (bridges); printed as CVFLRRKNG-Cit-ENFYQNWC; also: cyclic, bridge not given here) [CIT55]",antibody response in RA sera and control sera,RA sera,detected in RA sera but not control sera
ELRVDLRDHGETAFAVYDKFSVGDAKTRYK [Peptide 5],TNF synthesis,"[1]; RA membrane cells, 24 h with peptide",no effect
same,maximal inhibition of IL8 synthesis,"[1]; RA membrane cells, dose dependent",81%
same,cytokine synthesis,[2],induced cytokine synthesis in a dose dependent manner
same,FBG mediated cytokine synthesis,human macrophages,specifically blocked
KTRYKLKVEGYSGTAGDSMAYHNGRSFST [Peptide 6],cytokine synthesis,[2],induced cytokine synthesis in a dose dependent manner
Pam3Cys-Ser-Lys4 [reference compound],cytokine synthesis,MyD88,abolished
same,responsiveness after re-transfection of wild type MyD88,MyD88,restored the responsiveness
same,cytokine synthesis,TLR4,did respond
same,cytokine synthesis,TLR2,unresponsive
TIGLLYPFPKDCSQAMLNGDTTSGLYTIYL [Peptide 1],cytokine synthesis,[2],induced cytokine synthesis in a dose dependent manner
TNF-α [reference compound],cytokine synthesis,MyD88,unaffected
WIVFLRRKNGRENFYQNWKAYAAGFGDRRE [Peptide 3],inhibition of cytokine synthesis at the highest concentrations,[1],95%
same,TNF and IL8 synthesis,[1]; 24 h with peptide,inhibited
WYRNCHRVNLMGRYGDNNHSQGVNWFHWKG [Peptide 8],inhibition of cytokine synthesis at the highest concentrations,[1],56%
same,TNF and IL8 synthesis,[1]; 24 h with peptide,inhibited
same,cytokine synthesis in response to LPS,human macrophages; then 1 ng/ml LPS,blocked
same,FBG mediated cytokine synthesis,human macrophages,blocked
cFBG: FBG domain of tenascin-C citrullinated in vitro with PAD,cytokine (TNFα) synthesis compared with native FBG,[3],better at stimulating cytokine (e.g. TNFα) synthesis
same,adhesion of human dermal fibroblasts (HDF),[4],reduces adhesion
same,adhesion of synovial fibroblasts from RA joints (RAF),[5],reduces adhesion
B1,cytokine synthesis,MyD88,abolished
same,responsiveness after re-transfection of wild type MyD88,MyD88,restored the responsiveness
same,cytokine synthesis,TLR4,did respond
same,cytokine synthesis,TLR2,responsive

# Source: patent US20170009228A1, “BIOLOGICAL MATERIALS AND THERAPEUTIC USES THEREOF” (IMPERIAL INNOVATIONS LIMITED, priority 2014, published 2017)
